Reference: patent US20240246955A1, “TROPOMYOSIN RECEPTOR KINASE (TRK) DEGRADATION COMPOUNDS AND METHODS OF USE” (CULLGEN (SHANGHAI), INC., priority 2021, published 2024)

Legend:
Format in all cases: cell-based
KM12 cells = test: KM12 cell viability assay (CellTiter-Glo); details: Homo sapiens, 72 h; KM12 cells, 3 days, CellTiter-Glo
Outline: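 KM12 cells, 5000 per well, treated 3 days with 11-point 3-fold serial dilutions of heterobifunctional compounds. Viability by CellTiter-Glo luminescence, normalized to untreated cells; IC50 from least-squares nonlinear regression.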

[1] = tested on: TRKA G595R mutated KM12 cells; test: Cell viability assay in TRKA G595R mutated KM12 cells (CellTiter-Glo); details: Homo sapiens, 72 h, 3 days
Procedure: KM12, TRKA G595R mutated KM12, HEL, and other cells were cultured at 37° C. with 5% CO2 in DMEM or RPMI 1640 Medium supplemented with 10% fetal bovine serum. Cells were authenticated using the short tandem repeat (STR) assays. Mycoplasma test results were negative.
Cells were seeded at a density of 5000 cells per well in 96-well assay plates and treated with test compounds following a 11-point 3-fold serial dilution. Three days later, cell viability was determined using the CellTiter-Glo assay kit (Promega) according to the manufacturer's instructions. The dose-response curves were determined and IC50 values were calculated using the GraphPad Prism software following a nonlinear regression (least squares fit) method.
The activities of selected compounds on cell viability (IC50 values) and TMP3-TRKA degradation (percentage degradation at 10 nM) in KM12 cells or KM12-G595R mutated KM12 cells (KM12-G595R) are listed in Table 2.

TPM3-TRKA fusion protein = target: T1, TPM3-TRKA fusion protein (Homo sapiens, UniProt P04629); test: TPM3-TRKA degradation in KM12 cells (Western blot); details: 16 hours, TRK protein, immunoblot
T1 construct: TPM3 (N-terminal part of tropomyosin alpha-3, natural fusion partner); endogenous in cells; host or cells: KM12 colon cancer cells; the other entry of the earlier key: TPM3 (P06753, Tropomyosin alpha-3 chain)
Outline: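 KM12 cells treated with compound at 10 nM or 100 nM for 16 h, lysed in RIPA, and TRK protein measured by immunoblot with TRK-specific antibody and chemiluminescence band quantitation. Percent degradation binned: −, none; +, <50%; ++, ≥50% but <80%; +++, ≥80%.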

wildtype TRKA protein = target: T2, wildtype TRKA protein (Homo sapiens, UniProt P04629); test: Wildtype TRKA degradation in HEL cells (Western blot); details: 0.1 nM to 1000 nM, 16 hours, Western blot (FIG. 4A)
T2 construct: HEL cells expressing endogenous TRKA; endogenous in cells; host or cells: HEL erythroleukemia cells
Procedure: HEL cells were treated with heterobifunctional compounds CPD-019 and CPD-002 at 10 nM or 100 nM for 16 hours.
(§1) HEL cells expressing endogenous TRKA, and NIH3T3-TRKB and NIH3T3-TRKC cells prepared as described above were treated with heterobifunctional compound CPD-031 at 0.1 nM, 1 nM, 10 nM, 100 nM and 1000 nM for 16 hours.
(§2) Cultured cells were washed with cold PBS once and lysed in cold RIPA buffer supplemented with protease inhibitors and phosphatase inhibitors (Beyotime Biotechnology). The solutions were then incubated at 4° C. for 30 minutes with gentle agitation to fully lyse cells. Cell lysates were centrifuged at 13,000 rpm for 10 minutes at 4° C. and pellets were discarded. Total protein concentrations in the lysates were determined by BCA assays (Beyotime Biotechnology). Cell lysates were mixed with Laemmli loading buffer to 1× and heated at 99° C. for 5 min. Proteins were resolved on SDS-PAGE and visualized by chemiluminescence. Images were taken by a ChemiDoc MP Imaging system (Bio-Rad). Protein bands were quantitated using the software provided by Bio-Rad.

human full length TRKB = target: T3, human full length TRKB (Homo sapiens, UniProt Q16620); test: TRKB degradation in NIH3T3-TRKB cells (Western blot); details: 0.1 nM to 1000 nM, 16 hours, Western blot (FIG. 4B)
T3 construct: lentivirus directing expression of human full length TRKB or TRKC; expressed in transfected cells; host or cells: NIH3T3 cells, lentiviral transduction, puromycin selection
Procedure: (§3) NIH3T3 cells were infected with lentivirus directing expression of human full length TRKB or TRKC. Cells were then selected using 1 ug/ml puromycin to establish NIH3T3-TRKB and NIH3T3-TRKC cell lines that stably expressed human TRKB or TRKC, respectively.
as §1, §2

human full length TRKC = target: T4, human full length TRKC (Homo sapiens, UniProt Q16288); test: TRKC degradation in NIH3T3-TRKC cells (Western blot); details: 0.1 nM to 1000 nM, 16 hours, Western blot (FIG. 4C)
T4 construct: lentivirus directing expression of human full length TRKB or TRKC; expressed in transfected cells; host or cells: NIH3T3 cells, lentiviral transduction, puromycin selection
Procedure: as §3, §1, §2

T1 sequence (P04629 with tags, fused parts or gaps): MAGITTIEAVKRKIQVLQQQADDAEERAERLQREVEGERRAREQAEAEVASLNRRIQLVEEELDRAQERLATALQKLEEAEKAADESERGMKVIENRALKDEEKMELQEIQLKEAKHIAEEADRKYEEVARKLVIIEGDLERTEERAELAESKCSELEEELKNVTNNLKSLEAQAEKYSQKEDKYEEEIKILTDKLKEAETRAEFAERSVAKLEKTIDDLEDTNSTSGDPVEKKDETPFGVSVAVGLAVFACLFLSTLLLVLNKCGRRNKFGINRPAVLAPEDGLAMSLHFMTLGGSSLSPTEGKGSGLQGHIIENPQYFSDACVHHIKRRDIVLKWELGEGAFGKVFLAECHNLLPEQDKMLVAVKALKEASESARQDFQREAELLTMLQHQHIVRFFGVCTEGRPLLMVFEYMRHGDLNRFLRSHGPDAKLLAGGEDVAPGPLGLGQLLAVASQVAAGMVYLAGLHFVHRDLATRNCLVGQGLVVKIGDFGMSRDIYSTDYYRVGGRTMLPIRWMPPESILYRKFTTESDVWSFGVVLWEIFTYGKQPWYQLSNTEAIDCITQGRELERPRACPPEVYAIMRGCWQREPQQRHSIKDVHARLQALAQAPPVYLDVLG
T3 sequence (Q16620 32-822): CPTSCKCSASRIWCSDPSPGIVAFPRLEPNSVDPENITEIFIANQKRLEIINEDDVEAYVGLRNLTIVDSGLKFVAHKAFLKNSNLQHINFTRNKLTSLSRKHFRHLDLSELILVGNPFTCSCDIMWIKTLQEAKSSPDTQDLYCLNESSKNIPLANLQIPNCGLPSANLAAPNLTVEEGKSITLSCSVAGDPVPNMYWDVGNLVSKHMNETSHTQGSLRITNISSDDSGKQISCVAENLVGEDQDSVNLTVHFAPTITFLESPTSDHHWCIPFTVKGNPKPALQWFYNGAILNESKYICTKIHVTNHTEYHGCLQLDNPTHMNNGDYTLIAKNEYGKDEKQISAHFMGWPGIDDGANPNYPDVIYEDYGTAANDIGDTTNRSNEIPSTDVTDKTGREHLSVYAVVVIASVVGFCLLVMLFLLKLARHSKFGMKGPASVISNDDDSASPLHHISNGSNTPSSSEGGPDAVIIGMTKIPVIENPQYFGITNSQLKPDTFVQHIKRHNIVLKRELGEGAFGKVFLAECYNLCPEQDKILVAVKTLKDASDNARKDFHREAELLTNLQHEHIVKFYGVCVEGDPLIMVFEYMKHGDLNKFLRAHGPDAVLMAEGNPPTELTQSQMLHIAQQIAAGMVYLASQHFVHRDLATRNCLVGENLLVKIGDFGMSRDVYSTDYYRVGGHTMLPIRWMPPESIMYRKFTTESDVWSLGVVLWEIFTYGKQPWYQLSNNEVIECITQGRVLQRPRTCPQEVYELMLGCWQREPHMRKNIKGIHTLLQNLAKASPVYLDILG
T4 sequence (Q16288 32-839): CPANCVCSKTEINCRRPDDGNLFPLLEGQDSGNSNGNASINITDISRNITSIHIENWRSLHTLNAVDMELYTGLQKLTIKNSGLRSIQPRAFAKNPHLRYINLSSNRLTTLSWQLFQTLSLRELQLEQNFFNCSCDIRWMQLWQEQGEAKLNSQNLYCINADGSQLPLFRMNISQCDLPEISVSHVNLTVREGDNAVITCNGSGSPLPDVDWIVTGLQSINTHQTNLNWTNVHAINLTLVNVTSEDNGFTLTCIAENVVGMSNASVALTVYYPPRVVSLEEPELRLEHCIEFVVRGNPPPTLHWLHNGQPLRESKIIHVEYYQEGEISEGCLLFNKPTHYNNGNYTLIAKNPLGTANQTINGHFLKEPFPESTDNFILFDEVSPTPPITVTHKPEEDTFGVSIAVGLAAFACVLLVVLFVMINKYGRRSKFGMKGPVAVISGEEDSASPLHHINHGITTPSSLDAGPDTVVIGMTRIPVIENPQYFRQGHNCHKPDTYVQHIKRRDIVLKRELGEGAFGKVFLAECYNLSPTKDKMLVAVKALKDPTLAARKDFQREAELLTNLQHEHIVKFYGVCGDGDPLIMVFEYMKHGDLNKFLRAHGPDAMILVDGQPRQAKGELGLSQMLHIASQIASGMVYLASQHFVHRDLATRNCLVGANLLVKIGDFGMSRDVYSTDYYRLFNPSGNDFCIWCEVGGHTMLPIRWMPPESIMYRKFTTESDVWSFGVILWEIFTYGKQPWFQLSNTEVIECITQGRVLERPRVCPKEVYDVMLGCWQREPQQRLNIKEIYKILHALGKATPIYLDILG
T2 sequence (P04629 33-796): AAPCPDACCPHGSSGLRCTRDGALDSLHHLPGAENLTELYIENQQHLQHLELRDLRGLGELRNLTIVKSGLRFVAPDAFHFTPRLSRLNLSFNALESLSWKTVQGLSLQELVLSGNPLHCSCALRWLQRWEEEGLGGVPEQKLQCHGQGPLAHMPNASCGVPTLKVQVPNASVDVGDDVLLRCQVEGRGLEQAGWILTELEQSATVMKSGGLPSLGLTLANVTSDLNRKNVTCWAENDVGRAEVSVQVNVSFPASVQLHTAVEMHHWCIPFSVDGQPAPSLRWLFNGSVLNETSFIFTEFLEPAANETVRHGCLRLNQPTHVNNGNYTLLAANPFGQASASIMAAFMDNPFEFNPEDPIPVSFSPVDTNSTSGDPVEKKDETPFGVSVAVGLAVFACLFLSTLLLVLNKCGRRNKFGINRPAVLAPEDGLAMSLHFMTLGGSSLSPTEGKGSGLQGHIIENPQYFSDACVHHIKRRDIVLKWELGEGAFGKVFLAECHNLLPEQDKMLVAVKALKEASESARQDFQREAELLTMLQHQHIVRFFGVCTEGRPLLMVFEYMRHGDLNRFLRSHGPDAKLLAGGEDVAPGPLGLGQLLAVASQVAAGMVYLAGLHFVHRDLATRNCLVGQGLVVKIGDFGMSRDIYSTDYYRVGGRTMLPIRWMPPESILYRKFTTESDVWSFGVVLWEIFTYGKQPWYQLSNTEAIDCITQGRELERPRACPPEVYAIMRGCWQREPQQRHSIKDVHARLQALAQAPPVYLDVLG

Q: With `COCCN1C[C@@H](NC(=O)Nc2c(C)c(-c3cnc(N4CCN(CCNc5ccc6c(c5)C(=O)N(C5CCC(=O)NC5=O)C6=O)CC4)nc3)nn2-c2ccccc2)[C@H](c2cccc(F)c2)C1` (stereo partly drawn) [CPD-031, 1-(3-(2-(4-(2-((2-(2,6-dioxopiperidin-3-yl)-1,3-dioxoisoindolin-5-yl)amino)ethyl)piperazin-1-yl)pyrimidin-5-yl)-4-methyl-1-phenyl-1H-pyrazol-5-yl)-3-((3S,4R)-4-(3-fluorophenyl)-1-(2-methoxyethyl)pyrrolidin-3-yl)urea] as the molecule, how does the IC50 (KM12 cells) read?
A: The IC50 was 2.04 nM.

Q: What about the IC50 [1] of the same molecule?
A: Its IC50 is 6.11 nM.

Q: And the inhibition at 0.01 µM (TPM3-TRKA fusion protein; 10 nM)?
A: The inhibition at 0.01 µM was greater than 80%.

Q: What about the inhibition at 0.1 µM (TPM3-TRKA fusion protein; 100 nM) of the same molecule?
A: The inhibition at 0.1 µM was greater than 80%.

Q: And the “wildtype TRKA protein levels in HEL cells” value (wildtype TRKA protein)?
A: Its value is “significantly reduced”.

Q: What about the TRKB protein levels (human full length TRKB) of the same molecule?
A: The TRKB protein levels was “minimal reduction”.

Q: What about the TRKC protein levels (human full length TRKC) of the same molecule?
A: The TRKC protein levels was “minimal reduction”.
